This note sets out measurements from the supplement of paper PMC7806825.

The structures appear in SMILES notation.

In the first data set the test system is McpC ligand-binding domain (Salmonella Typhimurium SL1344). The data set can be described thus: protein melting temperature (Tm) in presence of compound (degrees C); higher = more thermal stabilisation (possible ligand binding). Conditions: Biolog plate: PM01; compound stock concentration: 10-20 mM, 2 uL in 10 uL reaction.
Turning to `NCCc1ccc(O)cc1` [Tyramine], the protein melting temperature was 43.9.
For `OC[C@H]1O[C@H](O)[C@H](O)[C@@H](O)[C@@H]1O` [a-D-Glucose], the protein melting temperature turned out to be 44.9.
In the case of `CC[C@H](O)C(=O)O` [a-Hydroxybutyric acid], the protein melting temperature was found to be 44.6.
As to `O=C1CC[C@@H](C(=O)O)O1` [a-Hydroxyglutaric acid-g-Lactone], the protein melting temperature was 45.3.
As for `CCC(=O)C(=O)O` [a-Ketobutyric acid], the protein melting temperature was determined as 43.9.
Regarding `CO[C@H]1O[C@H](CO)[C@H](O)[C@H](O)[C@H]1O` [a-Methyl-D-Galactoside], the protein melting temperature came to 44.9.
For `CO[C@@H]1O[C@H](CO)[C@@H](O)[C@H](O)[C@H]1O` [b-Methyl-D-Glucoside], the protein melting temperature was determined as 44.7.
With `O=C(O)Cc1cccc(O)c1` [m-Hydroxyphenyl Acetic acid], the protein melting temperature was 44.9.
On the same count and under the same terms, the value for `O=C(O)Cc1ccc(O)cc1` [p-Hydroxyphenyl Acetic acid] was 45.3.

Staying with this data set, now noted: Biolog plate: PM02A; compound stock concentration: 10-20 mM, 2 uL in 10 uL reaction.
Regarding `OC[C@@H](O)[C@H](O)[C@@H](O)CO` [Xylitol], the protein melting temperature worked out at 44.3.
With `CCCC(=O)C(=O)O` [a-Keto-Valeric acid], the protein melting temperature was found to be 44.3.
For the compound `CO[C@H]1O[C@H](CO)[C@@H](O)[C@H](O)[C@H]1O` [a-Methyl-D-Glucoside], the protein melting temperature was 44.2.
Still for that read-out and setting: to `CO[C@H]1O[C@H](CO)[C@@H](O)[C@H](O)[C@@H]1O` [a-Methyl-D-Mannoside] belongs 44.9.
On to `OC[C@H]1O[C@@H]2O[C@H]3[C@H](O)[C@@H](O)[C@@H](O[C@H]4[C@H](O)[C@@H](O)[C@@H](O[C@H]5[C@H](O)[C@@H](O)[C@@H](O[C@H]6[C@H](O)[C@@H](O)[C@@H](O[C@H]7[C@H](O)[C@@H](O)[C@@H](O[C@H]8[C@H](O)[C@@H](O)[C@@H](O[C@H]1[C@H](O)[C@H]2O)O[C@@H]8CO)O[C@@H]7CO)O[C@@H]6CO)O[C@@H]5CO)O[C@@H]4CO)O[C@@H]3CO` [b-Cyclodextrin], for which the protein melting temperature was determined as 45.4.
On the same count and under the same terms, to `C[C@@H](O)CC(=O)O` [b-Hydroxybutyric acid] belongs 44.6; to `CO[C@@H]1O[C@H](CO)[C@H](O)[C@H](O)[C@H]1O` [b-Methyl-D-Galactoside], 43.7; to `CO[C@@H]1O[C@H](C(=O)O)[C@@H](O)[C@H](O)[C@H]1O` [b-Methyl-D-Glucuronic acid], 44.1.
Take `CO[C@@H]1OC[C@@H](O)[C@H](O)[C@H]1O` [b-Methyl-D-Xyloside]: the protein melting temperature was determined as 44.2.
For the compound `NCCCC(=O)O` [g-Amino-N-Butyric acid], the protein melting temperature is 44.4.
`OC[C@H]1O[C@@H]2O[C@H]3[C@H](O)[C@@H](O)[C@@H](O[C@H]4[C@H](O)[C@@H](O)[C@@H](O[C@H]5[C@H](O)[C@@H](O)[C@@H](O[C@H]6[C@H](O)[C@@H](O)[C@@H](O[C@H]7[C@H](O)[C@@H](O)[C@@H](O[C@H]8[C@H](O)[C@@H](O)[C@@H](O[C@H]9[C@H](O)[C@@H](O)[C@@H](O[C@H]1[C@H](O)[C@H]2O)O[C@@H]9CO)O[C@@H]8CO)O[C@@H]7CO)O[C@@H]6CO)O[C@@H]5CO)O[C@@H]4CO)O[C@@H]3CO` [g-Cyclodextrin]: the protein melting temperature was found to be 44.7.
In the case of `O=C(O)CCCO` [g-Hydroxybutyric acid], the protein melting temperature is 44.2.
As for `OC[C@@H](O)[C@@H](O)CO` [i-Erythritol], the protein melting temperature was determined as 43.7.

Still in this data set, the particulars now being: Biolog plate: PM03B; compound stock concentration: 10-20 mM, 2 uL in 10 uL reaction.
As to `NCCc1ccc(O)cc1` [Tyramine], the protein melting temperature was found to be 44.8.
`O=c1cc[nH]c(=O)[nH]1` [Uracil]: the protein melting temperature was 45.7.
Same read-out and setting: to `NC(N)=O` [Urea] belongs 46.5; to `Oc1nc(O)c2nc(O)[nH]c2n1` [Uric acid], 44.4; to `O=c1[nH]c(=O)c2nc[nH]c2[nH]1` [Xanthine], 44.5.
With `OC[C@H]1O[C@@H](n2cnc3c(O)nc(O)nc32)[C@H](O)[C@@H]1O` [Xanthosine], the protein melting temperature was found to be 44.3.
As to `NCCc1ccccc1` [b-Phenylethylamine], the protein melting temperature was determined as 44.6.
In the case of `NCCCCCC(=O)O` [e-Amino-N-Caproic acid], the protein melting temperature was determined as 44.4.
With `NCCCC(=O)O` [g-Amino-N-Butyric acid], the protein melting temperature came to 44.

Staying with this data set, now noted: Biolog plate: PM04A; compound stock concentration: 10-20 mM, 2 uL in 10 uL reaction.
For the compound `O=c1ccn([C@@H]2O[C@H](CO)[C@@H](O)[C@H]2OP(=O)(O)O)c(=O)[nH]1` [Uridine 2`-Monophosphate], the protein melting temperature amounted to 43.8.
As for `O=c1ccn([C@@H]2O[C@H](CO)[C@@H](OP(=O)(O)O)[C@H]2O)c(=O)[nH]1` [Uridine 3`-Monophosphate], the protein melting temperature is 43.5.
Turning to `O=P(O)(O)OC(CO)CO` [b-Glycerol Phosphate], the protein melting temperature was found to be 44.3.
As to `Nc1ccc(S(=O)(=O)O)cc1` [p-Aminobenzene Sulfonic acid], the protein melting temperature was found to be 44.5.

The data set is the same for the next values; noted with them: Biolog plate: PM05; compound stock concentration: 10-20 mM, 2 uL in 10 uL reaction.
`O=c1cc[nH]c(=O)[nH]1` [Uracil]: the protein melting temperature amounted to 42.7.
For `OC[C@H]1O[C@H](O)[C@H](O)[C@@H](O)[C@@H]1O` [a-D-Glucose], the protein melting temperature worked out at 42.9.
Still for that read-out and setting: the value for `CC[C@H](O)C(=O)O` [a-Hydroxybutyric acid] was 43.7.
The same measure, in the same setting: to `CCC(=O)C(=O)O` [a-Ketobutyric acid] belongs 44.
For `NC(=O)c1ccc[n+](C2OC(COP(=O)([O-])OP(=O)(O)OCC3OC(n4cnc5c(N)ncnc54)C(O)C3O)C(O)C2O)c1` (configuration not stated) [b-Nicotinamide Adenine Dinucleotide], the protein melting temperature was found to be 44.8.
`NCC(=O)CCC(=O)O` [d-Amino-levulinic acid]: the protein melting temperature amounted to 43.8.
`Nc1ccc(C(=O)O)cc1` [p-Amino-Benzoic acid]: the protein melting temperature amounted to 43.7.
